From ChEMBL document CHEMBL1132261, “Pneumocystis carinii and Toxoplasma gondii dihydrofolate reductase inhibitors and antitumor agents: synthesis and biological activities of 2,4-diamino-5-methyl-6-[(monosubstituted anilino)methyl] pyrido[2,3-d]pyrimidines” (J Med Chem, 1999)

What was measured:
[1] = The compound was tested for ratio of inhibition of dihydrofolate reductase(DHFR) from rat(rl) liver and Pneumocystis carinii(pc)
[2] = The compound was tested for ratio of inhibition of dihydrofolate reductase(DHFR) from rat(rl) liver and Toxoplasma gondii(tg)
Dihydrofolate reductase [3] = target: T1, Dihydrofolate reductase (Rattus norvegicus, UniProt Q920D2)
T1 sequence (Q920D2 whole entry): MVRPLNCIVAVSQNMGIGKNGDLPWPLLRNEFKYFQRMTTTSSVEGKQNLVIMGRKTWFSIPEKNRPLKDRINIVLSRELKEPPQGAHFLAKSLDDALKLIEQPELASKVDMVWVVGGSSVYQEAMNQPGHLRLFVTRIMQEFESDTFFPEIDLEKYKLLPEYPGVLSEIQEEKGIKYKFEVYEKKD
Description: Inhibition of dihydrofolate reductase (DHFR) from rat liver (rl)

Toxoplasma gondii = assay: Inhibitory concentration of cell growth from Toxoplasma gondii; type: functional, organism-based
[4] = target: T2, Bifunctional dihydrofolate reductase-thymidylate synthase (Toxoplasma gondii, UniProt Q07422); assay: Inhibition of dihydrofolate reductase (DHFR) from Toxoplasma gondii(tg)
T2 sequence (Q07422 whole entry): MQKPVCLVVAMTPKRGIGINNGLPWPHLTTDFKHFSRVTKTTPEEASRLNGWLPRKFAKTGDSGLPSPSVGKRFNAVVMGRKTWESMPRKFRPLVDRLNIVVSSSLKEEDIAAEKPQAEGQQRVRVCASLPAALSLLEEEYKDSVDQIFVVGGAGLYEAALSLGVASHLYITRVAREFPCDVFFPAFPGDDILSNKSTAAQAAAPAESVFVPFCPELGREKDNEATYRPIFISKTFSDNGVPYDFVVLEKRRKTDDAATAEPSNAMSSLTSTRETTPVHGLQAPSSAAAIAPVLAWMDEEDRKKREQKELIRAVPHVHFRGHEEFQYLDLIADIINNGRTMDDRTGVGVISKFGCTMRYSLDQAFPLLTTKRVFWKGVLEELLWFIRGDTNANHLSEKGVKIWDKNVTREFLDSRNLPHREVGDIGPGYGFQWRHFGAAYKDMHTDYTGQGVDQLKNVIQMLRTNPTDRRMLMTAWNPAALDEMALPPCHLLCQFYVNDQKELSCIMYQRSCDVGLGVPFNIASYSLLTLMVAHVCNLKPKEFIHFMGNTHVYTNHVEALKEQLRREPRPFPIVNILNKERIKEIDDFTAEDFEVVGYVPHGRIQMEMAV

[5] = The compound was tested for ratio of inhibition of cell growth and dihydrofolate reductase(DHFR); type: functional
Dihydrofolate reductase [6] = target: T3, Dihydrofolate reductase (Pneumocystis carinii, UniProt P16184)
T3 sequence (P16184 whole entry): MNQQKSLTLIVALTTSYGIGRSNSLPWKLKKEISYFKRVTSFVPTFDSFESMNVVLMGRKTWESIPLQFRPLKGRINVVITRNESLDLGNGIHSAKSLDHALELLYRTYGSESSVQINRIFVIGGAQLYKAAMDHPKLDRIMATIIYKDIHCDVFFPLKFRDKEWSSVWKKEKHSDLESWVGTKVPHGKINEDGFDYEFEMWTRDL
Description: Inhibition of dihydrofolate reductase (DHFR) from Pneumocystis carinii(pc)

[7] = Log Ko/w value by LOGKOW program.; type: ADME; conditions: octanol/water; read-out: Log Ko/w

SMILES | Ratio [1] | IC50 (Dihydrofolate reductase [3]) [nM] | IC50 (Dihydrofolate reductase [6]) [nM] | logP [7] | Ratio [2] | IC50 (Toxoplasma gondii) [nM] | IC50 [4] [nM] | Ratio [5]
COc1ccc(N(C)Cc2cnc3nc(N)nc(N)c3c2C)cc1OC | 0.1 | – | – | – | 1.5 | – | – | –
COc1ccccc1NCc1cnc2nc(N)nc(N)c2c1C | – | 169 | 117 | – | – | – | 23 | –
COc1ccc(NCc2cnc3nc(N)nc(N)c3c2C)cc1 | – | 55.6 | 95.4 | – | – | – | 12 | –
COc1ccc(NCc2cnc3nc(N)nc(N)c3c2C)cc1OC | – | 44 | – | – | – | – | – | –
Cc1c(CNc2ccc(Br)cc2)cnc2nc(N)nc(N)c12 | – | 34.9 | 80.8 | – | – | – | 9.5 | –
COc1ccc(OC)c(N(C)Cc2cnc3nc(N)nc(N)c3c2C)c1 | – | – | – | 2.42 | – | – | – | 35
Cc1c(CNc2ccccc2)cnc2nc(N)nc(N)c12 | – | 170 | 80 | 1.79 | – | 317 | 17 | 19
COc1cccc(NCc2cnc3nc(N)nc(N)c3c2C)c1 | – | 80.1 | 68.9 | 2.14 | – | 371 | 7.4 | 50
Cc1c(CNc2ccc(Cl)cc2)cnc2nc(N)nc(N)c12 | – | 51 | 55.4 | – | – | – | 19 | –
Cc1c(CNc2cccc(Cl)c2)cnc2nc(N)nc(N)c12 | – | 37 | 23 | – | – | – | 11 | –
COc1cc(N(C)Cc2cnc3nc(N)nc(N)c3c2C)cc(OC)c1OC | – | – | – | 1.76 | – | – | – | –

More lines, main results first:

Ratio [1] | IC50 (Dihydrofolate reductase [3]) [nM] | IC50 (Dihydrofolate reductase [6]) [nM] | logP [7] | SMILES | Ratio [2] | IC50 (Toxoplasma gondii) [nM] | IC50 [4] [nM] | Ratio [5]
– | 88 | 47 | 2.35 | Cc1c(CNc2ccccc2Cl)cnc2nc(N)nc(N)c12 | – | 58 | 7.1 | 8
– | 100 | 84 | – | Cc1c(CN(C)c2ccccc2Cl)cnc2nc(N)nc(N)c12 | – | – | 18 | –
– | 13 | 35 | – | COc1ccc(N(C)Cc2cnc3nc(N)nc(N)c3c2C)cc1 | – | – | 7.3 | –
– | 18 | 30 | – | COc1cccc(N(C)Cc2cnc3nc(N)nc(N)c3c2C)c1 | – | – | 6.3 | –
– | 36 | 37 | – | Cc1c(CN(C)c2ccc(Br)cc2)cnc2nc(N)nc(N)c12 | – | – | 30 | –
– | 26 | 29 | – | Cc1c(CN(C)c2ccc(Cl)cc2)cnc2nc(N)nc(N)c12 | – | – | 5.4 | –
